Assay [1] relates to Mycosphaerella graminicola (Septoria tritici). Description: Mycosphaerella graminicola (Septoria tritici) / liquid culture (Septoria blotch). Type of assay: cell-based. To be noted: Zymoseptoria tritici, PDB potato dextrose broth, 24° C., 4-5 days after application, read-out: control of Mycosphaerella graminicola (inhibition of growth, photometric). On the procedure:
Example B15: Mycosphaerella graminicola (Septoria tritici)/Liquid Culture (Septoria Blotch) Conidia of the fungus from cryogenic storage are directly mixed into nutrient broth (PDB potato dextrose broth). After placing a (DMSO) solution of test compound into a microtiter plate (96-well format), the nutrient broth containing the fungal spores is added. The test plates are incubated at 24° C. and the inhibition of growth is determined photometrically 4-5 days after application. […] […]-191.

In assay [2] the test system is Monographella nivalis (Microdochium nivale). The assay is described as follows: Monographella nivalis (Microdochium nivale) / liquid culture (foot rot cereals). To be noted: PDB potato dextrose broth, 24° C., 4-5 days after application, read-out: control of Monographella nivalis (inhibition of growth, photometric). The assay is classed as cell-based. On the procedure:
Example B7: Monographella nivalis (Microdochium nivale)/Liquid Culture (Foot Rot Cereals) Conidia of the fungus from cryogenic storage are directly mixed into nutrient broth (PDB potato dextrose broth). After placing a (DMSO) solution of test compound into a microtiter plate (96-well format), the nutrient broth containing the fungal spores is added. The test plates are incubated at 24° C. and the inhibition of growth is determined photometrically 4-5 days after application. […] […]-190.

Assay [3] deals with Glomerella lagenarium (Colletotrichum lagenarium). Description: Glomerella lagenarium (Colletotrichum lagenarium) / liquid culture (anthracnose). To be noted: Colletotrichum orbiculare, PDB potato dextrose broth, 24° C., 3-4 days after application, read-out: control of Glomerella lagenarium (inhibition of growth, photometric). Type of assay: cell-based. On the procedure: Example B3: Glomerella lagenarium (Colletotrichum lagenarium)/Liquid Culture (Anthracnose) Conidia of the fungus from cryogenic storage are directly mixed into nutrient broth (PDB potato dextrose broth). After placing a (DMSO) solution of test compound into a microtiter plate (96-well format), the nutrient broth containing the fungal spores is added. The test plates are incubated at 24° C. and the inhibition of growth is measured photometrically 3-4 days after application. […] […]-191.

In assay [4] the test system is Blumeria graminis f. sp. tritici (Erysiphe graminis f. sp. tritici). The assay is described as follows: Blumeria graminis f. sp. tritici / wheat / leaf disc preventative (powdery mildew on wheat). To be noted: foliar, wheat leaf segments cv. Kanzler, inoculated 1 day after application, assessed 6-8 days after application, read-out: control of Blumeria graminis f. sp. tritici (percent disease control compared to untreated). The assay is classed as in vivo. An excerpt:
Example B4: Blumeria graminis f. sp. tritici (Erysiphe graminis f. sp. tritici)/Wheat/Leaf Disc Preventative (Powdery Mildew on Wheat) Wheat leaf segments cv. Kanzler are placed on agar in a multiwell plate (24-well format) and sprayed with the formulated test compound diluted in water. The leaf disks are inoculated by shaking powdery mildew infected plants above the test plates 1 day after application. […] […]-192.

The results in this text go back to US12458021B2, “Microbiocidal derivatives” (SYNGENTA CROP PROTECTION AG, priority 2019, dated 2025).

Turning to `CC1(C)CCC1NC(=O)c1nc(Nc2cc(F)cc(F)c2)ccc1O` (stereo not shown) [Compound P-2, 6-(3,5-difluoroanilino)-N-(2,2-dimethylcyclobutyl)-3-hydroxy-pyridine-2-carboxamide], the inhibition at 20 ppm in assay [1], in assay [2] and in assay [3] was at least 80% throughout.
For `O=C(NC1CCC12CCCC2)c1nc(Nc2cc(F)nc(F)c2)ccc1O` (stereo not shown) [Compound P-3, 6-[(2,6-difluoro-4-pyridyl)amino]-3-hydroxy-N-spiro[3.4]octan-3-yl-pyridine-2-carboxamide], the inhibition at 20 ppm in assay [1], in assay [2] and in assay [3] was at least 80% throughout.
Consider `COc1cnc(Nc2cc(F)cc(F)c2)nc1C(=O)NCCC(C)C` [Compound P-8, 2-(3,5-difluoroanilino)-N-isopentyl-5-methoxy-pyrimidine-4-carboxamide], for which the inhibition at 20 ppm in assay [1], in assay [2] and in assay [3] was at least 80% throughout.
Regarding `COc1cnc(Nc2cc(F)nc(F)c2)nc1C(=O)NCCC(C)C` [Compound P-9, 2-[(2,6-difluoro-4-pyridyl)amino]-N-isopentyl-5-methoxy-pyrimidine-4-carboxamide], in assay [4], the pest or weed control at 200 ppm is at least 80%.
Consider `COc1cnc(Nc2cc(F)nc(F)c2)nc1C(=O)NC1CCC1(C)C` (stereo not shown) [Compound P-11, 2-[(2,6-difluoro-4-pyridyl)amino]-N-(2,2-dimethylcyclobutyl)-5-methoxy-pyrimidine-4-carboxamide], for which the pest or weed control at 200 ppm in assay [4] was at least 80%.
As to `CC1(C)CCC1NC(=O)c1nc(Nc2ccccc2)ccc1O` (stereo not shown) [Compound P-16, 6-anilino-N-(2,2-dimethylcyclobutyl)-3-hydroxy-pyridine-2-carboxamide], the inhibition at 20 ppm in assay [1], in assay [2] and in assay [3] was at least 80% throughout.
Regarding `CC1(C)CCC1NC(=O)c1nc(Nc2ccnc(F)c2)ccc1O` (stereo not shown) [Compound P-18, N-(2,2-dimethylcyclobutyl)-6-[(2-fluoro-4-pyridyl)amino]-3-hydroxy-pyridine-2-carboxamide], the inhibition at 20 ppm in assay [1], in assay [2] and in assay [3] was at least 80% in each case.
`COc1ccc(Nc2cnsc2)nc1C(=O)NCc1ccc(Cl)cc1` [Compound P-37, N-[(4-chlorophenyl)methyl]-6-(isothiazol-4-ylamino)-3-methoxy-pyridine-2-carboxamide]: the inhibition at 20 ppm in assay [1], in assay [2] and in assay [3] was at least 80% in each case.
On to `COc1ccc(Nc2cnsc2)nc1C(=O)NC(C)COc1cc(F)cc(F)c1` (stereo not shown) [Compound P-38, N-[2-(3,5-difluorophenoxy)-1-methyl-ethyl]-6-(isothiazol-4-ylamino)-3-methoxy-pyridine-2-carboxamide], for which the inhibition at 20 ppm in assay [1] and in assay [2] was at least 80% each time.
Consider `COc1ccc(Nc2cnsc2)nc1C(=O)NCCOc1ccc(Cl)cc1Cl` [Compound P-39, N-[2-(2,4-dichlorophenoxy)ethyl]-6-(isothiazol-4-ylamino)-3-methoxy-pyridine-2-carboxamide], for which the inhibition at 20 ppm in assay [1], in assay [2] and in assay [3] was at least 80% in each case.
In the case of `COc1ccc(NCC2CC2)nc1C(=O)NCC(C)(C)C` [Compound P-40, 6-(cyclopropylmethylamino)-N-(2,2-dimethylpropyl)-3-methoxy-pyridine-2-carboxamide], the inhibition at 20 ppm in assay [1] and in assay [2] was at least 80% each time.
Regarding `COc1ccc(NCC(C)(C)C)nc1C(=O)NCC(C)(C)C` [Compound P-43, N-(2,2-dimethylpropyl)-6-(2,2-dimethylpropylamino)-3-methoxy-pyridine-2-carboxamide], the inhibition at 20 ppm in assay [1] and in assay [2] was at least 80% each time.
For `COc1ccc(Nc2cc(F)nc(F)c2)nc1C(=O)NCc1cncn1Cc1ccccc1` [Compound P-48, N-[(3-benzylimidazol-4-yl)methyl]-6-[(2,6-difluoro-4-pyridyl)amino]-3-methoxy-pyridine-2-carboxamide], the pest or weed control at 200 ppm in assay [4] was at least 80%.
Same read-out and setting: under `COc1ccc(Nc2cc(F)nc(F)c2)nc1C(=O)NC1COC(C2CC2)C1` (stereo not shown) [Compound P-50, N-(5-cyclopropyltetrahydrofuran-3-yl)-6-[(2,6-difluoro-4-pyridyl)amino]-3-methoxy-pyridine-2-carboxamide] stands at least 80%; under `COc1ccc(Nc2cc(F)nc(F)c2)nc1C(=O)NCc1nn(C)c2ncccc12` [Compound P-51, 6-[(2,6-difluoro-4-pyridyl)amino]-3-methoxy-N-[(1-methylpyrazolo[3,4-b]pyridin-3-yl)methyl]pyridine-2-carboxamide], at least 80%.
Regarding `COc1ccc(Nc2cc(F)nc(F)c2)nc1C(=O)NCC1(C)CCOC1` (stereo not shown) [Compound P-53, 6-[(2,6-difluoro-4-pyridyl)amino]-3-methoxy-N-[(3-methyltetrahydrofuran-3-yl)methyl]pyridine-2-carboxamide], the pest or weed control at 200 ppm in assay [4] was at least 80%.
On the same count and under the same terms, the same measure for `COc1ccc(Nc2cc(F)nc(F)c2)nc1C(=O)NC1C2CCOC2C1(C)C` (stereo not shown) [Compound P-54, 6-[(2,6-difluoro-4-pyridyl)amino]-N-(7,7-dimethyl-2-oxabicyclo[3.2.0]heptan-6-yl)-3-methoxy-pyridine-2-carboxamide]: at least 80%; for `COc1ccc(Nc2cc(F)cc(F)c2)nc1C(=O)NC1CC2(COC2)C1` [Compound P-64, 6-(3,5-difluoroanilino)-3-methoxy-N-(2-oxaspiro[3.3]heptan-6-yl)pyridine-2-carboxamide]: at least 80%.
For the compound `COc1ccc(Nc2cc(F)cc(F)c2)nc1C(=O)NCC1(c2ccc(Cl)nc2)CC1` [Compound P-73, N-[[1-(6-chloro-3-pyridyl)cyclopropyl]methyl]-6-(3,5-difluoroanilino)-3-methoxy-pyridine-2-carboxamide], the inhibition at 20 ppm in assay [1], in assay [2] and in assay [3] was at least 80% throughout.
`CCON=C(CNC(=O)c1nc(Nc2cc(F)cc(F)c2)ccc1OC)c1ncc(Cl)cc1Cl` [Compound P-75, N-[2-(3,5-dichloro-2-pyridyl)-2-ethoxyimino-ethyl]-6-(3,5-difluoroanilino)-3-methoxy-pyridine-2-carboxamide]: the inhibition at 20 ppm in assay [1], in assay [2] and in assay [3] was at least 80% in each case.
As for `C#CCOc1ccc(Nc2cc(F)cc(F)c2)nc1C(=O)NC(C)(C)C` [Compound P-96, N-tert-butyl-6-(3,5-difluoroanilino)-3-prop-2-ynoxy-pyridine-2-carboxamide], the inhibition at 20 ppm in assay [1] and in assay [2] was at least 80% each time.
As to `COc1ccc(Nc2ccc(Cl)c(Cl)c2)nc1C(=O)NCC(C)(C)C` [Compound P-131, 6-(3,4-dichloroanilino)-N-(2,2-dimethylpropyl)-3-methoxy-pyridine-2-carboxamide], the inhibition at 20 ppm in assay [2] and in assay [3] was at least 80% in each case.
For the compound `COc1ccc(Nc2ccc(F)cc2)nc1C(=O)NCC(C)(C)C` [Compound P-133, N-(2,2-dimethylpropyl)-6-(4-fluoroanilino)-3-methoxy-pyridine-2-carboxamide], the inhibition at 20 ppm in assay [1], in assay [2] and in assay [3] was at least 80% throughout.
Consider `COc1ccc(Nc2ccc(Cl)c(C)c2)nc1C(=O)NCC(C)(C)C` [Compound P-138, 6-(4-chloro-3-methyl-anilino)-N-(2,2-dimethylpropyl)-3-methoxy-pyridine-2-carboxamide], for which the inhibition at 20 ppm in assay [2] and in assay [3] was at least 80% each time.
On to `COc1ccc(Nc2cccc(C)c2)nc1C(=O)NCC(C)(C)C` [Compound P-140, N-(2,2-dimethylpropyl)-3-methoxy-6-(3-methylanilino)pyridine-2-carboxamide], for which the inhibition at 20 ppm in assay [1], in assay [2] and in assay [3] was at least 80% in each case.
`COc1ccc(Nc2ccc(C(F)(F)F)cc2)nc1C(=O)NC(C)(C)C` [Compound P-150, N-tert-butyl-3-methoxy-6-[4-(trifluoromethyl)anilino]pyridine-2-carboxamide]: the inhibition at 20 ppm in assay [2] and in assay [3] was at least 80% throughout.
